Results published in publication PMC11434480, “Discovery and Optimization of Ergosterol Peroxide Derivatives as Novel Glutaminase 1 Inhibitors for the Treatment of Triple-Negative Breast Cancer” (Molecules, 2024).

Key:
A549 = test: MTT antiproliferative assay, A549; assay type: cell-based, human; conditions: Homo sapiens, A549, 48 h, mean of three experiments ± SD
Procedure: (§1) The in vitro antiproliferative activity of the novel EP derivatives (1a–h, 2a–h, 3a–h, and 4a–h) was evaluated on four different human cancer cell lines (A549, HepG2, MCF-7, and MDA-MB-231) using an MTT assay.
(§2) Cells containing 10% fetal bovine serum (FBS; WISENT, Nanjing, China) were cultured in an L-15 culture medium (L-15, BOSTER, Wuhan, China) in an incubator at 37 °C. The cells were then inoculated into 96-well plates at a density of 5 × 10^3/well, cultured in 100 μL L-15 medium for 24 h, and incubated with the compound to be tested for 48 h. Next, 20 μL of MTT (5 mg/mL) solution was added and incubated at 37 °C for 4 h away from light. A resorption culture medium was then supplemented with 150 μL DMSO per well. The absorbance was measured at 570 nm using an enzymometer (SAFIRE2, Tecan, Swiss Confederation, Männedorf, Switzerland). The cytotoxic activity was presented in terms of half the inhibition rate.

HepG2 = test: MTT antiproliferative assay, HepG2; assay type: cell-based, human; conditions: Homo sapiens, HepG2, 48 h, mean of three experiments ± SD
Procedure: as §1, §2

MCF-7 = test: MTT antiproliferative assay, MCF-7; assay type: cell-based, human; conditions: Homo sapiens, MCF7, 48 h, mean of three experiments ± SD
Procedure: as §1, §2

MDA-MB-231 = test: MTT antiproliferative assay, MDA-MB-231; assay type: cell-based, human; conditions: Homo sapiens, MDA-MB-231; MTT, 48 h, mean of three experiments ± SD
Procedure: as §1, §2

human GLS1 = target: T1, human GLS1 (Homo sapiens, UniProt O94925); test: GLS1 inhibitor screening kit in MDA-MB-231 cells; assay type: cell-based; conditions: 48 h, read-out: GLS1 inhibition IC50
T1 sequence (O94925 55-669): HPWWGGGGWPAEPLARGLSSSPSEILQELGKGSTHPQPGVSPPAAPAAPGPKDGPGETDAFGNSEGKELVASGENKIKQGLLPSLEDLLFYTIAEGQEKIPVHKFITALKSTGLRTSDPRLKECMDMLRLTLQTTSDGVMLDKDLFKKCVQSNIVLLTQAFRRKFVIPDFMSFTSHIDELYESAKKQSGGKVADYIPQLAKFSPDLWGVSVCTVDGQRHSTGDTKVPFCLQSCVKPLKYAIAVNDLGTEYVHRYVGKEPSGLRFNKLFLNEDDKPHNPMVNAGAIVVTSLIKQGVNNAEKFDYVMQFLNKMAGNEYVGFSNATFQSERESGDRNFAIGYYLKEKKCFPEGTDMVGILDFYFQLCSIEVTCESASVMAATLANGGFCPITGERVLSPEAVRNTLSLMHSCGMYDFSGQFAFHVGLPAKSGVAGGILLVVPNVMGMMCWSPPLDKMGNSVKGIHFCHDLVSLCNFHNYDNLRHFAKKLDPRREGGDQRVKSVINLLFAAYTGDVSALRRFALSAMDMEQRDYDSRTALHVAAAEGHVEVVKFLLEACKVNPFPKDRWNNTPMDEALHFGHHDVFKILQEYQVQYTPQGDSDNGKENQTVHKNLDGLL
Procedure: The GLS1 inhibitory activity of compound 3g in MDA-MB-231 cells was evaluated using a GLS1 inhibitor screening kit.
MDA-MB-231 cells were cultured for 24 h and then incubated with different concentrations of 3g or 0.1%DMSO for 48 h and washed with PBS 1–2 times. The cells were then collected, subjected to ultrasound in an ice bath for 5 min, and centrifuged at 4 °C and 1200 g for 15 min. Next, the GLS1 activity in human GLS1 was evaluated according to the manufacturer’s guidelines using a GLS1 screening kit (Sangon Biotech #D799306, Shanghai, China) in a 96-well plate (Corning # 351172, New York, NY, USA).

SMILES	IC50 (A549)	IC50 (HepG2)	IC50 (MCF-7)	IC50 (MDA-MB-231)	IC50 (human GLS1)
CC(C)[C@@H](C)/C=C/[C@@H](C)[C@H]1CC[C@@H]2[C@]1(C)CC[C@H]1[C@]23C=C[C@]2(C[C@@H](O)CC[C@]12C)OO3 [EP, Ergosterol peroxide]	15 ± 1.27 µM	18.1 ± 1.71 µM	19.4 ± 1.5 µM	17.3 ± 1.05 µM	33.7 µM
CC(C)C(C)C=CC(C)C1CCC2C1(C)CCC1C23C=CC2(CC(OC(=O)CCCC(=O)Nc4nc5ccc(F)cc5s4)CCC12C)OO3 (centres unmarked) [Compound 3d, Ergosterol peroxide-3-(5-((6-fluorobenzo[d]thiazol-2-yl)amino)-5-oxopentanoate)]	9.09 ± 0.64 µM	14.7 ± 0.35 µM	8.39 ± 0.34 µM	10.8 ± 0.53 µM	
CC(C)C(C)C=CC(C)C1CCC2C1(C)CCC1C23C=CC2(CC(OC(=O)CCCC(=O)Nc4ccc5ccccc5c4)CCC12C)OO3 (centres unmarked) [Compound 3h, Ergosterol peroxide-3-(5-(naphthalen-2-ylamino)-5-oxopentanoate)]	9.3 ± 0.66 µM	13.8 ± 1.3 µM	8.65 ± 0.73 µM	4.98 ± 0.84 µM	
O=C(Cc1ccccc1)Nc1nnc(CCSCCc2nnc(NC(=O)Cc3ccccc3)s2)s1 [BPTES, reference compound]	49.1 ± 11.6 µM	60.2 ± 8.35 µM	21.3 ± 6.89 µM	9.1 ± 0.26 µM	
